Measured values as given in PMC5540250, “Influence of the Number of Axial Bexarotene Ligands on the Cytotoxicity of Pt(IV) Analogs of Oxaliplatin” (Bioinorganic Chemistry and Applications, 2017).
Where two headings read alike, the source gives them in different places.

How the values were obtained:
[1] = tested on: human MCF7 breast cancer cell line; test: MTT cytotoxicity test, 72 h, MCF7; format: cell-based; conditions: MCF7 cells, mean ± standard deviation from 3 independent experiments
Description: (§1) The MCF7, MCF7D (gift of N. I. Moiseeva), HaCat, A549, and SW480 cell lines were cultured in Dulbecco modified Eagle's medium (DMEM; PanEco, Russia) with 10% fetal bovine serum (HyClone, USA) and antibiotics (PanEco, Russia) in 5% CO2, 37°C. The compounds were predissolved at 20 mM in dimethyl sulfoxide (DMSO) and added to the cell culture at the required concentration with maximum DMSO content of 0.5 v/v%. Cells in 96-well plates (7 × 10^3 cells/well) were treated with various concentrations of 3, 4, cisplatin, or bexarotene at 37°C for 72 h. Cell viability was determined using the MTT assay as follows: cells were incubated at 37°C for 4 h with 20 μl of 5 mg/ml solution of 3-(4,5-dimethylthiazol-2-yl)-2,5 diphenyltetrazolium bromide (Sigma-Aldrich, St. Louis, USA). The supernatant was discarded and formazan was dissolved in 150 μl of DMSO. The optical density of the solution was measured at 550 nm on a multiwell plate reader (Multiskan FC, Thermo Fisher Scientific, USA). The percentage of viable (i.e., MTT converting) cells was calculated from the absorbance of untreated cells (100%). Each experiment was repeated three times, and each concentration was tested in three replicates.
(§2) The cytotoxicity of complexes 3 and 4, bexarotene, and cisplatin was evaluated in the human MCF7 breast cancer cell line and its doxorubicin/cisplatin resistant subline MCF7D, as well as against colon carcinoma SW480 cells, non-small cell lung carcinoma A549, and immortalized human nonmalignant keratinocyte HaCat cell line using the colorimetric MTT-test after 72 h of incubation (Table 1). The cytotoxic potency of oxaliplatin, the Pt(II) precursor of the new complexes, was taken from literature.

[2] = tested on: colon carcinoma SW480 cells; test: MTT cytotoxicity test, 72 h, SW480; format: cell-based, human; conditions: mean ± standard deviation from 3 independent experiments
Description: as §1, §2

[3] = tested on: immortalized human nonmalignant keratinocyte HaCat cell line; test: MTT cytotoxicity test, 72 h, HaCat; format: cell-based; conditions: HaCat nonmalignant keratinocytes, mean ± standard deviation from 3 independent experiments
Description: as §1, §2

[4] = tested on: non-small cell lung carcinoma A549; test: MTT cytotoxicity test, 72 h, A549; format: cell-based, human; conditions: A549 cells, mean ± standard deviation from 3 independent experiments
Description: as §1, §2

[5] = tested on: doxorubicin/cisplatin resistant subline MCF7D; test: MTT cytotoxicity test, 72 h, MCF7D; format: cell-based, human; conditions: MCF7D cells (doxorubicin/cisplatin resistant), mean ± standard deviation from 3 independent experiments
Description: as §1, §2

[6] = tested on: colon carcinoma SW480 cells; design: method as in PMID 22331606; conditions: taken from literature; cited from earlier work
[7] = tested on: non-small cell lung carcinoma A549; design: method as in PMID 22331606; conditions: A549 cells; taken from literature; cited from earlier work
[8] = tested on: human MCF7 breast cancer cell line; design: method as in PMID 22213516; conditions: MCF7 cells; taken from literature; cited from earlier work

Row | Compound | IC50 [1] | IC50 [2] | IC50 [3] | IC50 [4] | IC50 [5] | other results
1 | C=C(c1ccc(C(=O)O)cc1)c1cc2c(cc1C)C(C)(C)CCC2(C)C [Bexarotene, 4-(1-(3,5,5,8,8-pentamethyl-5,6,7,8-tetrahydro-2-naphthyl)vinyl)benzoic acid] | – | – | – | – | – | IC50 ([1]; Homo sapiens): 67 ± 13 µM; IC50 ([2]; Homo sapiens): 80 ± 10 µM; IC50 ([3]; Homo sapiens): > 90 µM; IC50 ([4]; Homo sapiens): 85 ± 9 µM; IC50 ([5]; Homo sapiens): 71 ± 21 µM
2 | N.N.[Cl][Pt][Cl] [Cisplatin] | 14 ± 7 µM | 14 ± 4.4 µM | 30 ± 10 µM | 29 ± 10 µM | 75 ± 5.8 µM | –
3 | O=C(O)C(=O)O.[NH-][C@@H]1CCCC[C@H]1[NH-].[Pt+2] [Oxaliplatin] | – | – | – | – | – | IC50 [6]: 0.9 ± 0.3 µM; IC50 [7]: 11.5 ± 3.9 µM; IC50 [8]: 43.8 µM
4 | (OC-6-33)-(trans-1R,2R-Diaminocyclohexane)-bis(4-(1-(3,5,5,8,8-pentamethyl-5,6,7,8-tetrahydro-2-naphthyl)vinyl)benzoato)oxalatoplatinum(IV) [Complex 3] | > 100 µM | > 100 µM | > 100 µM | 83 ± 16 µM | > 100 µM | –
5 | (OC-6-44)-acetato(trans-1R,2R-Diamineocyclohexane)-4-(1-(3,5,5,8,8-pentamethyl-5,6,7,8-tetrahydro-2-naphthyl)vinyl)benzoato)oxalatoplatinum(IV) [Complex 4] | 0.47 ± 0.07 µM | 11 ± 1.6 µM | 8 ± 1.3 µM | 10 ± 1 µM | 4.8 ± 0.5 µM | IC50 MCF7 [1]: submicromolar range
